Experimental data taken from patent publication US7807678B2, “Peptidomimetics of biologically active metallopeptides” (Palatin Technologies, Inc., priority 2001, dated 2010).

How the values were obtained:
MC5-R = MC5-R (Homo sapiens, UniProt P33032); assay: Competitive inhibition binding assay, 125I-NDP-α-MSH, MC5-R; design: expressed in transfected cells; settings: 1 μM compound; inhibition of 125I-NDP-α-MSH binding; mean of triplicates; results less than 0% reported as 0%
Procedure: (§1) The competitive inhibition binding assay was conducted using membranes prepared from hMC3-R, hMC4-R, hMC5-R, and B-16 mouse melanoma cells (containing MC1-R) using 0.4 nM ^125I-NDP-α-MSH (New England Nuclear, Boston, Mass., USA) in 50 mM HEPES buffer containing 1 mM MgCl2, 2 mM CaCl2, and 5 mM KCl, at pH 7.2. The assay tube also contained a chosen concentration of the test peptidomimetic of this invention, generally 1 μM, for determining its efficacy in inhibiting the binding of ^125I-NDP-α-MSH to its receptor.
(§2) Incubation was for 90 minutes at room temperature, after which the assay mixture was filtered and the membranes washed three times with ice cold buffer. The filter was dried and counted in a gamma counter for remaining radioactivity bound to the membranes. 100% specific binding was defined as the difference in radioactivity (cpm) bound to cell membranes in the absence and presence of 1 μM α-MSH. […] Each assay was conducted in triplicate and the actual mean values are described.

MC4-R = MC4-R (Homo sapiens, UniProt P32245); assay: Competitive inhibition binding assay, 125I-NDP-α-MSH, MC4-R; design: expressed in transfected cells; settings: for Inhibition at 1 μM MC4-R: 1 μM compound, inhibition of 125I-NDP-α-MSH binding, mean of triplicates, results less than 0% reported as 0%
Chain of MC4-R (P32245 whole entry): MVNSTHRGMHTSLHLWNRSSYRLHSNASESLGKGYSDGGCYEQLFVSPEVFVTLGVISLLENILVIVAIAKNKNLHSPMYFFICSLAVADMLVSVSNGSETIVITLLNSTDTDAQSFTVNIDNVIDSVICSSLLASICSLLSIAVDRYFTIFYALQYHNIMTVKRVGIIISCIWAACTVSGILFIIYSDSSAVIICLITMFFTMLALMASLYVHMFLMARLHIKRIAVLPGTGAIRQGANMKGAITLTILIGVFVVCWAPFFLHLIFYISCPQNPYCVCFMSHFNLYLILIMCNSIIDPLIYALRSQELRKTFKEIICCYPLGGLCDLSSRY
Procedure: as §1, §2

MC3-R = MC3-R (Homo sapiens, UniProt P41968); assay: Competitive inhibition binding assay, 125I-NDP-α-MSH, MC3-R; design: expressed in transfected cells; settings: for Inhibition at 1 μM MC3-R: 1 μM compound, inhibition of 125I-NDP-α-MSH binding, mean of triplicates, results less than 0% reported as 0%
Chain of MC3-R (P41968 whole entry): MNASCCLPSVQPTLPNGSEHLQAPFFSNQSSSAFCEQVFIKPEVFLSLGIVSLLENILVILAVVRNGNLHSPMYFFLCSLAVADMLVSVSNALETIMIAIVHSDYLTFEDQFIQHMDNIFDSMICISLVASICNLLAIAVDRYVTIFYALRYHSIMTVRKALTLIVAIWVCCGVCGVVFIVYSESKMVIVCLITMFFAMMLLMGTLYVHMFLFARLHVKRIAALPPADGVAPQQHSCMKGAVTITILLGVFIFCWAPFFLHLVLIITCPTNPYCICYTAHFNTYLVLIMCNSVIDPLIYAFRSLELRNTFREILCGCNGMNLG
Procedure: as §1, §2

[1] = biological target: T1, MC1-R (B-16 mouse melanoma cells) (Mus musculus, UniProt Q01727); assay: Competitive inhibition binding assay, 125I-NDP-α-MSH, MC1-R; settings: for Inhibition at 1 μM MC1-R: 1 μM compound, inhibition of 125I-NDP-α-MSH binding, mean of triplicates, results less than 0% reported as 0%
T1 construct: B-16 mouse melanoma cells (containing MC1-R); endogenous in cells; host or cells: B-16 mouse melanoma cells
T1 sequence (Q01727 whole entry): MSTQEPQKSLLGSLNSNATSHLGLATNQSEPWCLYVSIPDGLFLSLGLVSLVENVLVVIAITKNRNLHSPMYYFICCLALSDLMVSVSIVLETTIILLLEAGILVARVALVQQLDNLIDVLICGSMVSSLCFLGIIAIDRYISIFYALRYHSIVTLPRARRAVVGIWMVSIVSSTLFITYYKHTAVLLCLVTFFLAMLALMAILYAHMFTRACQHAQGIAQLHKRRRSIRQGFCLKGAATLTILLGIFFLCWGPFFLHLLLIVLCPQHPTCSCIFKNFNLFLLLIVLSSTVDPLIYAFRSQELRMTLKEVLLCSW
Procedure: as §1, §2

Chain of MC5-R (P33032 whole entry): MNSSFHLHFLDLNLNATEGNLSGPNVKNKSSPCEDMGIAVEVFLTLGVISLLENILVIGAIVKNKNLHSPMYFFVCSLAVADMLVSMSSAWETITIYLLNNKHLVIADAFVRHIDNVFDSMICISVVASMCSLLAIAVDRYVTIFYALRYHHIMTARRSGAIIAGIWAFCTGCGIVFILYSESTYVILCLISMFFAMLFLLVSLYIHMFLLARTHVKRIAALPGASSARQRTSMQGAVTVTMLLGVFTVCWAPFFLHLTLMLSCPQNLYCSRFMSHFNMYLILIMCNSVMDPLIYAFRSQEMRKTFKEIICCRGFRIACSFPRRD

| Inhibition at 1 μM MC5-R (MC5-R) | Inhibition at 1 μM MC4-R (MC4-R) | Inhibition at 1 μM MC3-R (MC3-R) | Inhibition at 1 μM MC1-R [1] | inhibition at 1 µM (MC4-R) | inhibition at 1 µM (MC3-R) | inhibition at 1 µM [1] | Structure (SMILES) |
| --- | --- | --- | --- | --- | --- | --- | --- |
| 14% | 40% | 9% | 0% | – | – | – | CS(=O)(=O)NCCC[C@H]1C(=O)N(CCc2ccc3ccccc3c2)CCN1C(=O)[C@@H](Cc1ccc(Cl)cc1Cl)NC(=O)[C@@H](N)COCc1ccccc1 [Example 47] |
| 1% | 43% | 0% | 2% | – | – | – | NCCC[C@H]1C(=O)N(CCc2ccc3ccccc3c2)CCN1C(=O)[C@H](N)Cc1ccc(Cl)cc1Cl [Example 49] |
| 0% | 0% | 0% | 0% | – | – | – | NC(=O)CC[C@H]1C(=O)N(CCc2ccc3ccccc3c2)CCN1C(=O)[C@H](N)Cc1ccc(Cl)cc1Cl [Example 50] |
| 23% | 55% | 11% | 28% | – | – | – | NCC[C@H]1C(=O)N(CCc2ccc3ccccc3c2)CCN1C(=O)[C@H](N)Cc1ccc(Cl)cc1Cl [Example 54] |
| 27% | 68% | 14% | 24% | – | – | – | N[C@H](Cc1ccc(Cl)cc1Cl)C(=O)N1CCN(CCc2ccc3ccccc3c2)C(=O)[C@@H]1CCNC1=NCCN1 [Example 55] |
| 24% | 81% | 13% | 21% | – | – | – | N=C(N)NCC[C@H]1C(=O)N(CCc2ccc3ccccc3c2)CCN1C(=O)[C@H](N)Cc1ccc(Cl)cc1Cl [Example 56] |
| 5% | 9% | 0% | 11% | – | – | – | NC(=O)NCC[C@H]1C(=O)N(CCc2ccc3ccccc3c2)CCN1C(=O)[C@H](N)Cc1ccc(Cl)cc1Cl [Example 57] |
| 3% | 0% | 0% | 7% | – | – | – | N[C@H](Cc1ccc(Cl)cc1Cl)C(=O)N1CCN(CCc2ccc3ccccc3c2)C(=O)[C@@H]1CCCn1cncn1 [Example 58] |
| 30% | 72% | 14% | 26% | – | – | – | NCCCC[C@H]1C(=O)N(CCc2ccc3ccccc3c2)CCN1C(=O)[C@H](N)Cc1ccc2ccccc2c1 [Example 59] |
| 13% | 23% | 6% | 4% | – | – | – | N[C@H](Cc1ccc(Cl)cc1Cl)C(=O)N1CCN(CCc2ccc3ccccc3c2)C(=O)[C@@H]1CCCCNC(=O)c1cccnc1 [Example 60] |
| 26% | 12% | 6% | 3% | – | – | – | N[C@H](Cc1ccc(Cl)cc1Cl)C(=O)N1CCN(CCc2ccc3ccccc3c2)C(=O)[C@@H]1CCCCNC(=O)c1ccc(O)cc1 [Example 61] |
| 2% | 6% | 4% | 0% | – | – | – | N[C@H](Cc1ccc(Cl)cc1Cl)C(=O)N1CCN(CCc2ccc3ccccc3c2)C(=O)[C@@H]1CCCCNC(=O)CC1CCCCC1 [Example 62] |
| 6% | 30% | 0% | 8% | – | – | – | N[C@H](Cc1ccc(Cl)cc1Cl)C(=O)N1CCN(CCc2ccc3ccccc3c2)C(=O)[C@@H]1CCCCNC=O [Example 64] |
| 0% | 26% | 3% | 17% | – | – | – | CC(=O)NCCCC[C@H]1C(=O)N(CCc2ccc3ccccc3c2)CCN1C(=O)[C@H](N)Cc1ccc(Cl)cc1Cl [Example 65] |
| 14% | 49% | 15% | 43% | – | – | – | NC(=O)NCCCC[C@H]1C(=O)N(CCc2ccc3ccccc3c2)CCN1C(=O)[C@H](N)Cc1ccc(Cl)cc1Cl [Example 66] |
| – | – | – | – | 10% | 9% | 94% | [2H]N[C@@H](Cc1cnc[nH]1)C(=O)N[C@@H](Cc1ccccc1)C(=O)N1C2CC[C@H](COc3ccc4ccccc4c3)N2C(=O)[C@@H]1CCCCN (stereo partly shown) [Example 111] |

Second part, the molecule before the results:

| Structure (SMILES) | Inhibition at 1 μM MC5-R (MC5-R) | Inhibition at 1 μM MC4-R (MC4-R) | Inhibition at 1 μM MC3-R (MC3-R) | Inhibition at 1 μM MC1-R [1] | inhibition at 1 µM (MC4-R) | inhibition at 1 µM (MC3-R) | inhibition at 1 µM [1] |
| --- | --- | --- | --- | --- | --- | --- | --- |
| CCCCCCC(=O)N[C@@H](COCc1ccccc1)C(=O)N[C@H](Cc1ccccc1Cl)C(=O)N1CCN(CCc2c[nH]c3ccccc23)C(=O)[C@@H]1CCCCN [Example 11] | 82% | 99% | 51% | 96% | – | – | – |
| NCCCC[C@H]1C(=O)N(CCc2ccccc2)CCN1C(=O)[C@@H](Cc1ccc(Cl)cc1)NC(=O)[C@@H](N)COCc1ccccc1 [Example 12] | 14% | 40% | 39% | 46% | – | – | – |
| NCCCC[C@H]1C(=O)N(CCc2ccccc2)CCN1C(=O)[C@@H](Cc1ccc(Cl)cc1)NC(=O)[C@@H]1Cc2ccccc2CN1 [Example 13] | 16% | 66% | 21% | 68% | – | – | – |
| N=C(N)NCCC[C@H]1C(=O)N(CCc2c[nH]c3ccccc23)CCN1C(=O)[C@@H](Cc1ccc(Cl)cc1)NC(=O)[C@@H](N)COCc1ccc(Cl)cc1 [Example 15] | 90% | 94% | 64% | 81% | – | – | – |
| N=C(N)NCCC[C@H]1C(=O)N(CCc2c[nH]c3ccccc23)CCN1C(=O)[C@@H](Cc1ccc(Cl)cc1)NC(=O)[C@@H](N)COCc1ccccc1 [Example 16] | 81% | 96% | 55% | 86% | – | – | – |
| N=C(N)NCCC[C@H]1C(=O)N(CCc2c[nH]c3ccccc23)CCN1C(=O)[C@@H](Cc1ccccc1Cl)NC(=O)[C@@H]1Cc2ccccc2CN1 [Example 18] | 62% | 99% | 50% | 95% | – | – | – |
| N=C(N)NCCC[C@H]1C(=O)N(CCc2c[nH]c3ccccc23)CCN1C(=O)[C@@H](Cc1ccccc1Cl)NC(=O)[C@@H]1C[C@@H](OCc2ccccc2)CN1 [Example 19] | 85% | 99% | 59% | 91% | – | – | – |
| N=C(N)NCCC[C@H]1C(=O)N(CCc2c[nH]c3ccccc23)CCN1C(=O)[C@@H](Cc1ccccc1Cl)NC(=O)[C@@H](N)COCc1ccccc1 [Example 20] | 71% | 98% | 40% | 87% | – | – | – |
| N=C(N)NCCCC1C(=O)N(CCc2c[nH]c3ccccc23)CCN1C(=O)C(Cc1ccccc1Cl)NC(=O)C1CCC(c2ccccc2)N1 (stereo not shown) [Example 21] | 19% | 83% | 22% | 62% | – | – | – |
| NCCCC[C@H]1C(=O)N(CCOc2ccc3ccccc3c2)CCN1C(=O)[C@@H](Cc1ccc(Cl)cc1)NC(=O)[C@@H](N)COCc1ccccc1 [Example 29] | 72% | 64% | 21% | 64% | – | – | – |
| NCCCC[C@H]1C(=O)N(CCOc2ccc3ccccc3c2)CCN1C(=O)[C@@H](Cc1ccc(Cl)cc1)NC(=O)[C@@H]1Cc2ccccc2CN1 [Example 30] | 65% | 88% | 35% | 88% | – | – | – |
| NCCCC[C@H]1C(=O)N(CCc2ccc3ccccc3c2)CCN1C(=O)[C@H](N)Cc1ccc(Cl)cc1Cl [Example 35] | 4% | 62% | 3% | 9% | – | – | – |
| CC(=O)NCCCC1C(=O)N(CCc2ccc3ccccc3c2)CCN1C(=O)C(Cc1ccc(Cl)cc1Cl)NC(=O)C(N)COCc1ccccc1 (stereo not shown) [Example 42] | 30% | 61% | 10% | 13% | – | – | – |
| COC(=O)NCCC[C@H]1C(=O)N(CCc2ccc3ccccc3c2)CCN1C(=O)[C@@H](Cc1ccc(Cl)cc1Cl)NC(=O)[C@@H](N)COCc1ccccc1 [Example 43] | 20% | 43% | 0% | 1% | – | – | – |
| CNC(=O)NCCC[C@H]1C(=O)N(CCc2ccc3ccccc3c2)CCN1C(=O)[C@@H](Cc1ccc(Cl)cc1Cl)NC(=O)[C@@H](N)COCc1ccccc1 [Example 45] | 31% | 72% | 11% | 5% | – | – | – |
| N[C@@H](COCc1ccccc1)C(=O)N[C@H](Cc1ccc(Cl)cc1Cl)C(=O)N1CCN(CCc2ccc3ccccc3c2)C(=O)[C@@H]1CCCNS(N)(=O)=O [Example 46] | 25% | 60% | 12% | 0% | – | – | – |
